Measured values from ChEMBL document CHEMBL2434896, “Carbonic anhydrase inhibitors. Synthesis of heterocyclic 4-substituted pyridine-3-sulfonamide derivatives and their inhibition of the human cytosolic isozymes I and II and transmembrane tumor-associated isozymes IX and XII” (Eur J Med Chem, 2013).
The source made the active and inactive calls. No cut-off for these calls is given here.

Assays:
HT-29 = assay: Growth inhibition of human HT-29 cells at 10 uM after 48 hrs by sulforhodamine B assay; type: functional; conditions: for inhibition of growth at 10 µM: HT-29, 48 h, read-out: GI
[1] = (§1) Growth inhibition of human EKVX cells at 10 uM after 48 hrs by sulforhodamine B assay; type: functional; conditions: read-out: GI
RPMI-8226 = assay: Growth inhibition of human RPMI8226 cells at 10 uM after 48 hrs by sulforhodamine B assay; type: functional; conditions: for inhibition of growth at 10 µM: RPMI-8226, 48 h, read-out: GI
NCI-H522 = assay: Growth inhibition of human NCI-H522 cells at 10 uM after 48 hrs by sulforhodamine B assay; type: functional; conditions: for inhibition of growth at 10 µM: NCI-H522, 48 h, read-out: GI
NCI/ADR-RES = assay: (§2) Growth inhibition of human NCI-ADR-RES cells at 10 uM after 48 hrs by sulforhodamine B assay; type: functional
SK-MEL-28 = assay: Growth inhibition of human SK-MEL-28 cells at 10 uM after 48 hrs by sulforhodamine B assay; type: functional, cell-based
NCI-H23 = assay: Growth inhibition of human NCI-H23 cells at 10 uM after 48 hrs by sulforhodamine B assay; type: functional; conditions: for inhibition of growth at 10 µM: NCI-H23, 48 h, read-out: GI
KM12 = assay: Growth inhibition of human KM12 cells at 10 uM after 48 hrs by sulforhodamine B assay; type: functional; conditions: for inhibition of growth at 10 µM: KM12, 48 h, read-out: GI
HCT-15 = assay: Growth inhibition of human HCT15 cells at 10 uM after 48 hrs by sulforhodamine B assay; type: functional; conditions: for inhibition of growth at 10 µM: HCT-15, 48 h, read-out: GI
SNB-19 = assay: Growth inhibition of human SNB19 cells at 10 uM after 48 hrs by sulforhodamine B assay; type: functional; conditions: for inhibition of growth at 10 µM: SNB-19, 48 h, read-out: GI
HOP-62 = assay: Growth inhibition of human HOP62 cells at 10 uM after 48 hrs by sulforhodamine B assay; type: functional; conditions: for inhibition of growth at 10 µM: HOP-62, 48 h, read-out: GI
HL-60(TB) = assay: Growth inhibition of human HL-60(TB) cells at 10 uM after 48 hrs by sulforhodamine B assay; type: functional; conditions: for inhibition of growth at 10 µM: HL-60, 48 h, read-out: GI
EKVX = assay: as §1; type: functional
[2] = Growth inhibition of human HCC2998 cells at 10 uM after 48 hrs by sulforhodamine B assay; type: functional; conditions: HCC 2998, 48 h, read-out: GI
UACC-257 = assay: Growth inhibition of human UACC257 cells at 10 uM after 48 hrs by sulforhodamine B assay; type: functional
[3] = Growth inhibition of human Hs 578T cells at 10 uM after 48 hrs by sulforhodamine B assay; type: functional; conditions: read-out: GI
[4] = as §2; type: functional; conditions: read-out: GI

SMILES	inhibition of growth at 10 µM (HT-29)	inhibition of growth at 10 µM [1]	inhibition of growth at 10 µM (RPMI-8226)	inhibition of growth at 10 µM (NCI-H522)	growth inhibition (GI) (NCI/ADR-RES)	growth inhibition (GI) (SK-MEL-28)	inhibition of growth at 10 µM (NCI-H23)	growth inhibition (GI) (KM12)	inhibition of growth at 10 µM (HCT-15)	growth inhibition (GI) (SNB-19)	growth inhibition (GI) (HOP-62)	inhibition of growth at 10 µM (HL-60(TB))	growth inhibition (GI) (EKVX)	growth inhibition (GI) (UACC-257)	growth inhibition (GI) (NCI-H23)	growth inhibition (GI) (HT-29)	inhibition of growth at 10 µM [4]	growth inhibition (GI) (HCT-15)	inhibition of growth at 10 µM (HOP-62)	inhibition of growth at 10 µM (SNB-19)	further results
NS(=O)(=O)c1cnccc1N1CCN(c2ccc(Cl)cc2)CC1	7%	11%	25%	8%	inactive	inactive	7%	inactive	5%	inactive	inactive	1%	–	–	–	–	–	–	–	–	–
CCc1cc(CC)n(-c2ccncc2S(N)(=O)=O)n1	1%	–	9%	7%	inactive	inactive	–	inactive	4%	inactive	inactive	–	inactive	inactive	inactive	–	–	–	–	–	inhibition of growth at 10 µM [2]: 6%; growth inhibition (GI) (HL-60(TB)): inactive
Cc1ccc(C)c(N2CCN(c3ccncc3S(N)(=O)=O)CC2)c1	9%	–	8%	15%	inactive	inactive	–	inactive	12%	inactive	inactive	6%	inactive	inactive	inactive	–	–	–	–	–	–
NS(=O)(=O)c1cnccc1N1CCN(c2ccccn2)CC1	–	1%	5%	–	–	inactive	4%	inactive	–	inactive	inactive	–	–	–	–	inactive	6%	inactive	–	–	inhibition of growth at 10 µM [3]: 20%; growth inhibition (GI) (NCI-H522): inactive; inhibition of growth at 10 µM (UACC-257; UACC-257, 48 h, read-out: GI): 2%; growth inhibition (GI) (HL-60(TB)): inactive
COc1ccccc1N1CCN(c2ccncc2S(N)(=O)=O)CC1	4%	3%	3%	–	inactive	inactive	–	inactive	–	inactive	–	–	–	inactive	inactive	–	–	inactive	2%	–	growth inhibition (GI) (NCI-H522): inactive
NS(=O)(=O)c1cnccc1N1CCC(Cc2ccccc2)CC1	2%	–	11%	12%	inactive	inactive	–	–	2%	–	inactive	3%	inactive	inactive	inactive	–	–	–	–	2%	inhibition of growth at 10 µM (KM12): 2%
NS(=O)(=O)c1cnccc1N1CCN(Cc2ccc3c(c2)OCO3)CC1	–	–	–	2%	–	inactive	–	–	1%	–	–	7%	inactive	inactive	inactive	inactive	3%	–	5%	3%	growth inhibition (GI) (RPMI-8226): inactive; inhibition of growth at 10 µM (KM12): 1%
NS(=O)(=O)c1cnccc1N1CCN(c2ncccn2)CC1	–	–	–	2%	inactive	inactive	–	inactive	–	–	inactive	9%	inactive	inactive	inactive	inactive	–	inactive	–	1%	growth inhibition (GI) (RPMI-8226): inactive
NS(=O)(=O)c1cnccc1N1CCN(c2ccc(Cl)c(Cl)c2)CC1	29%	30%	47%	43%	–	inactive	33%	–	27%	–	–	18%	–	–	–	–	25%	–	1%	5%	inhibition of growth at 10 µM [2]: 17%; inhibition of growth at 10 µM (KM12): 18%
